# From US20260215432A1, “ANTIMICROBIAL CONJUGATED OLIGOELECTROLYTES AND METHODS THEREOF” (National University of Singapore, priority 2023, published 2026)
# Assays:
# S. aureus (ATCC 29213) = assay: MIC, broth microdilution in CA-MHB; format: cell-based
# Procedure: (§1) Antimicrobial activity was screened against a range of pathogens made up of clinically relevant ESKAPE pathogens by determination of the minimum inhibitory concentration (MIC) in cation-adjusted Mueller-Hinton broth (CA-MHB).
# (§2) Minimum inhibitory concentrations of COEs were determined through a broth microdilution method in accordance with the Clinical and Laboratory Standards Institute (CLSI) guidelines M07-A10. A single bacterial colony was isolated from an overnight culture and grown to mid-log phase (OD600~0.8). Compounds were prepared as a stock solution in DMSO and diluted in a sterile flat-bottom 96-well plate in CA-MHB. Subsequent concentrations were prepared by two-fold dilution of the initial solution. An equivalent volume of bacteria was added to the compound to a final concentration of 5×10^5 cfu/mL. Plates were incubated at 37° C. for 16-18 hours, and read at OD600 using a microplate reader (TECAN Spark®). […] MIC values were determined for each compound in triplicate.
# A. baumanii (ATCC 17978) = assay: MIC, broth microdilution in CA-MHB; format: cell-based
# Procedure: as §1, §2
# [1] = test system: Methicillin-resistant S. aureus (ATCC BAA1717); assay: MIC, broth microdilution in CA-MHB; format: cell-based
# Procedure: as §1, §2
# [2] = mice
# Procedure: At the end-point, mice were sacrificed and the individual organs and blood samples were collected. Tissues were fixed in 10% neutral-buffered formalin (NBF) for 48 hours and subjected to H&E staining and examination. Clinical blood biomarkers were analysed with a Pointcare® cM4 Blood Chemistry Analyzer (Tianjin MNCHIP Technologies Co., Ltd) according to the manufacturer's protocol.
# SA = assay: MIC in physiological-mimicking environments (MHB); format: cell-based, S. aureus
# Text: (§3) The complexities of the physiological environment often influence drug activity, particularly when cations in solution are implicated in their oligomerization-dependent mechanisms of action, such as for daptomycin. Binding of free drug to plasma proteins effectively reduces the available free concentration of the drug capable of killing bacteria, resulting in lower observable activity. We tested MIC values of DM4P and DM6P in the presence of human serum albumin (40 g L^−1) and high salt concentrations (Table 4). Under these conditions, the antimicrobial activity was minimally affected by these environmental factors, with MICs remaining within a 2-fold level.
# [3] = test system: M. abscesses (ATCC 19977); assay: MIC against mycobacterium in Middlebrook 7H9 broth; format: cell-based, M. abscessus
# Procedure: We also examined non-tuberculous mycobacteria (NTM). These are opportunistic pathogens that are rising in clinical significance due to their increasing prevalence and treatment difficulty. The membrane of Mycobacterium is inherently a greater antibiotic permeability barrier due to its high lipid content relative to other pathogens and long-tailed mycolic acids that contributed to its high lipophilic character. The antimicrobial activity of the TPP analogues were also evaluated against Mycobacterium in Middlebrook 7H9 broth.
# [4] = test system: Staphylococcus pseudintermedius; assay: Mouse wound infection model, S. pseudintermedius; format: in vivo, mice; details: for average CFU: S. pseudintermedius mouse wound
# Text: Staphylococcus pseudintermedius (SP) is particularly pathogenic towards dogs, with skin infections such as pyoderma being characterized by a lengthy treatment period and high treatment failure due to antimicrobial resistance. Here, we show high in vivo antimicrobial efficacy of compounds of FIG. 11 in a mouse wound infection model, featuring over a 3-log reduction in bacterial load at low concentrations. The grouping tested with saline has an average CFU of 5.16×10^8 CFU/g. The grouping tested with DM6P (0.1 mg/kg) has an average CFU of 1.62×10^7 CFU/g. The grouping tested with DM6P (0.25 mg/kg) has an average CFU of 5.51×10^5 CFU/g.
# For testing against Staphylococcus pseudintermedius, C57BL/6[SPF] mice (female, 18-20 g) were first acclimated, weighed and grouped based on body weight into 3 groups. Mice were anaesthetized and the hair at the back will be shaved and removed. A 6 mm-diameter excisional wound was created on the back of each mouse, and log-phase Staphylococcus pseudintermedius (Sp strain) (in 5 μL PBS) will be inoculated onto the wound. A 3M tegaderm will be used to cover the wound site from contamination. 2 h post infection, the groups were tested with saline, DM6P (0.1 mg/kg) and DM6P (0.25 mg/kg) respectively, by adding directly to wound site. At 12 h and 24 h post infection, sampling and colony enumeration were conducted. At 24 h post infection, all mice were sacrificed and the wound tissue harvested into 1 mL PBS.
# P. aeruginosa = assay: Resistance development by serial passaging at 0.5× MIC; format: cell-based
# Procedure: The non-specific action of membrane-active antibiotics lends itself to minimal development of resistance development due to the large metabolic burden involved, unlike traditional antibiotics with a well-defined enzymatic target. Based on this premise, we passaged bacteria incubated with DM6P, or ciprofloxacin (control), at 0.5× MIC to investigate the adaptation of bacteria towards external antibiotic stress. As a control, treatment of MRSA with ciprofloxacin gave rise to antibiotic-resistant mutants within 4 passages, see FIG. 4a. […] Combined with its broad spectrum of activity, this feature opens opportunities for the use of COE antimicrobial agents to address polymicrobial infections with a lower rate of emerging antibiotic resistance.
# [5] = phosphate-buffered saline; below 10 μg mL^−1 estimated by turbidimetric screening
# Procedure: The solubility of all the TPP derivatives was determined in phosphate-buffered saline (PBS) (Table S3).
# PAO1 = assay: Flow cytometry of PI uptake; format: cell-based, P. aeruginosa; details: PAO1, 16 μg mL^−1 (4× MIC), PI staining
# Procedure: Flow cytometry measurements were carried out to quantify PI uptake at the cellular level.
# Bacteria cells were collected from mid-log cultures by centrifugation (7000 rpm, 10 minutes). and washed with PBS twice. Cells were treated with the COE at 4×MIC and incubated for 30 minutes. PI (30 μM, final concentration) was then added and the cells were further incubated for 10 minutes. The suspension was then diluted in PBS to an appropriate cell density and analysed with flow cytometry using an Amnis ImageStreamX Mk II Imaging Flow Cytometer. The collection gate was set using the area vs aspect ratio of the brightfield channel to select for intact cell events only. To select for PI-stained cells, excitation was carried out using a 638 nm laser and the emission was collected in the range of 642-745 nm. Data was processed using IDEAS v6.3.
# PA = assay: MIC in physiological-mimicking environments (MHB); format: cell-based, P. aeruginosa
# Text: as §3
# [6] = 0.25 mg kg^−1, blood after 14 days, mean ± s.d. (n = 3)
structure (smiles),measurement,setting,value
COc1cc(/C=C/c2ccc(OCCCCCC[P+](c3ccccc3)(c3ccccc3)c3ccccc3)c(OC)c2)ccc1OCCCCCC[P+](c1ccccc1)(c1ccccc1)c1ccccc1.[I-].[I-] [DM6P],MIC SA,S. aureus (ATCC 29213),1 µg/mL
same,MIC AB,A. baumanii (ATCC 17978); CA-MHB,8 µg/mL
same,MIC,"A. baumanii (ATCC 17978); strain AB, Table 5",8 µg/mL
same,MIC MRSA,[1]; CA-MHB,1 µg/mL
same,MIC,"[1]; strain MRSA, Table 5",1 µg/mL
same,MIC,"[1]; towards MRSA, Table 3",1 µg/mL
same,ALB (albumin),[2]; [6],30 ± 3.3 g/L
same,ALT (alanine transaminase),[2]; [6],38.7 ± 4.1 U/L
same,AST (aspartate aminotransferase),[2]; [6],205 ± 50.7 U/L
same,BUN (blood urea nitrogen),[2]; [6],6.7 ± 0.3 mM
same,CRE,[2]; [6],63.7 ± 10.1 µM
same,GGT (gamma-glutamyl transferase),[2]; [6],0.6 ± 0.1 U/L
same,GLO (globulin),[2]; [6],18.6 ± 1.5 g/L
same,TBIL (total bilirubin),[2]; [6],2.9 ± 0.5 µM
same,TP (total protein),[2]; [6],48.6 ± 1.9 g/L
same,blood biomarker levels compared to saline-treated controls,"[2]; 0.25 mg/kg, after 14 days",no significant difference
same,H&E staining of the major organs,"[2]; DM6P treated, 14 days post-treatment",did not reveal any abnormal signs
same,MIC CaCl2,SA; CaCl2 1 mM,1 µg/mL
same,MIC MgCl2,SA; MgCl2 1.25mM,1 µg/mL
same,MIC NaCl,SA; NaCl 300 mM,1 µg/mL
same,MIC HSA,SA; human serum albumin 40 g L^−1,1 µg/mL
same,MIC —,SA; no additive,1 µg/mL
same,MIC M. abscesses,[3],8 µg/mL
same,average CFU,[4]; 0.1 mg/kg,1.62×10^7 CFU/g
same,average CFU,[4]; 0.25 mg/kg,5.51×10^5 CFU/g
same,tolerability (side effects),"[4]; mice, following compound administration",did not show any negative side effects
same,resistance development,P. aeruginosa,did not induce any observable resistant mutants
same,solubility in PBS,[5],108 µg/mL
same,PI uptake at the cellular level,PAO1,near quantitative cell staining with PI
same,MIC CaCl2,PA; CaCl2 1 mM,4 µg/mL
same,MIC MgCl2,PA; MgCl2 1.25mM,4 µg/mL
same,MIC NaCl,PA; NaCl 300 mM,8 µg/mL
same,MIC HSA,PA; human serum albumin 40 g L^−1,8 µg/mL
same,MIC —,PA; no additive,4 µg/mL
